Measurements reported in US20250009745A1, “CDK INHIBITOR” (SHANGHAI QILU PHARMACEUTICAL RESEARCH AND DEVELOPMENT …, priority 2021, published 2025).
Where two headings read alike, the source gives them in different places.

Experiments:
Experiment in all cases: CDK enzymology experiment in vitro, capillary mobility shift assay (MSA)
Type in all cases: biochemical
[1] = target: T1, CDK1 (Homo sapiens, UniProt P06493); conditions: read-out: CDK1 (nM) inhibitory IC50
T1 construct: purchased Carna Company
How it was run: (§1)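 Recombinant kinases tested against peptide substrates in 1× kinase buffer, with compound added as a 100-fold DMSO stock. Top concentration 1, 10 or 30 μM, 3-fold dilutions over 10 points, in duplicate. Substrate conversion read by Caliper EZ Reader, normalised to no-enzyme and no-compound controls, and IC50 fitted with a variable-slope log(inhibitor)–response model.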

[2] = target: T2, CDK2 (Homo sapiens, UniProt P24941); conditions: read-out: CDK2 (nM) inhibitory IC50
T2 construct: purchased Carna Company
How it was run: as §1

[3] = target: T3, CDK4 (Homo sapiens, UniProt P11802); conditions: read-out: CDK4 (nM) inhibitory IC50
T3 construct: purchased Carna Company
How it was run: as §1

[4] = target: T4, CDK7 (Homo sapiens, UniProt P50613); conditions: read-out: CDK7 (nM) inhibitory IC50
T4 construct: purchased Carna Company
How it was run: as §1

[5] = target: T5, CDK9 (Homo sapiens, UniProt P50750); conditions: read-out: CDK9 (nM) inhibitory IC50
T5 construct: purchased Carna Company
How it was run: as §1

[6] = target: T6, CDK6 (Homo sapiens, UniProt Q00534)
T6 construct: purchased Carna Company
Protocol: CDK1/CDK2/CDK4/CDK6/CDK7/CDK9 were purchased from Carna Company; Carliper substrate CTD3/substrate 18/substrate 8 were purchased from Gil Biochemical Company; Dinaciclib/Palbociclib were purchased from Selleckchem Company; DMSO was purchased from Sigma Company; 384-well plates were purchased from Corning Company.
• (1) Preparation of 1×Kinase buffer. • (2) Preparation of compound concentration gradient: Test concentration of the test compound was started at 1 μM, 10 μM or 30 μM, 3-fold dilution, 10 concentrations, detected in duplicate. […] Liquid handler Echo 550 was used to transfer 250 nL of 100-fold final concentration of the compound to the target plate 384-well plate. […] The 384-well plate was centrifuged at 1000 rpm for 30 seconds, and shaken to mix uniformly. • (10) The conversion rate was read with Caliper EZ Reader.
Where, conversion %_sample is the readings of conversion rate of the sample; conversion %_min: the average value of negative control wells, representing the readings of conversion rate of wells without enzyme activity; conversion %_max: the average value of positive control wells, representing the readings of conversion rate of wells without compound inhibition.
Taking the log value of the concentration as the X-axis, and the percentage inhibition rate as the Y-axis, the dose-effect curve was fitted using the log(inhibitor) vs. response—Variable slope of the analysis software GraphPad Prism 5 so as to obtain the IC50 value of each compound on the enzyme activity.
Y=Bottom+(Top−Bottom)/(1+10^((Log IC50−X)*HillSlope)). Calculation formula: […]

[7] = read-out: CDK6 (nM) inhibitory IC50

T3 sequence (P11802 whole entry): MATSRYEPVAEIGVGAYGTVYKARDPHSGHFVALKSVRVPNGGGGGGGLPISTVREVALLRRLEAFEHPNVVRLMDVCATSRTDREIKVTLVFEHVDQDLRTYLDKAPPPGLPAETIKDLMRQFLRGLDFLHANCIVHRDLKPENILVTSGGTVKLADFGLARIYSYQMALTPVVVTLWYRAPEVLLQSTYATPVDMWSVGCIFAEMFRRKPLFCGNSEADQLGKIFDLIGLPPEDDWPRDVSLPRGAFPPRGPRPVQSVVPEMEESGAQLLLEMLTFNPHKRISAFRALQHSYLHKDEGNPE
T3 sequence (P30281 whole entry partner): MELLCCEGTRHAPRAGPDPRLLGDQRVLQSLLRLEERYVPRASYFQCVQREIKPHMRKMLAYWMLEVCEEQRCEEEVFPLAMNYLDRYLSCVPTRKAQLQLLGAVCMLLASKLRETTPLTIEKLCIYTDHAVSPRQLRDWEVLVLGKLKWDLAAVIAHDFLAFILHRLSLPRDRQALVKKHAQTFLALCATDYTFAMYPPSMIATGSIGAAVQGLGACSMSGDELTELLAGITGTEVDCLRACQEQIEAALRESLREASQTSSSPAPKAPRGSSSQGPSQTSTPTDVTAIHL
T1 sequence (P06493 whole entry): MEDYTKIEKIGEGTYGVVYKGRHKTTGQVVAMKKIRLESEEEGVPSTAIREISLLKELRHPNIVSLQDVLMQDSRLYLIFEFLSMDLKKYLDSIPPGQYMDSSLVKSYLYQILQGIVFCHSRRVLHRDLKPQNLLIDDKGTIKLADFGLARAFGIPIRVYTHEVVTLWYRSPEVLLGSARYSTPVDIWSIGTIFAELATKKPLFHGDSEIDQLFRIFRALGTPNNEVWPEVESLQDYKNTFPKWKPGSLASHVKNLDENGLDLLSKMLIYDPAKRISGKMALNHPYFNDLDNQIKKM
T1 sequence (P14635 whole entry partner): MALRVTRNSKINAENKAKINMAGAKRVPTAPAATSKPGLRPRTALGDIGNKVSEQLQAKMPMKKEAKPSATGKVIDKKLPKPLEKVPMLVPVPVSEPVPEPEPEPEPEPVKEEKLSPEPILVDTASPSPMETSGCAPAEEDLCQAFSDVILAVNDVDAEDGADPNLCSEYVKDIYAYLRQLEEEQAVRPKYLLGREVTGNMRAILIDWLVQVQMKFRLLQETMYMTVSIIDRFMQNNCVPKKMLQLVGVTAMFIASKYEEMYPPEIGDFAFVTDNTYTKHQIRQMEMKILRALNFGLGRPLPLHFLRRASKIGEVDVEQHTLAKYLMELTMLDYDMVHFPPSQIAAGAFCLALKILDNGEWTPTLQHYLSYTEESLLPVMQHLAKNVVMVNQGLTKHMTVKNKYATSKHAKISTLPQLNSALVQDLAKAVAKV
T6 sequence (Q00534 whole entry): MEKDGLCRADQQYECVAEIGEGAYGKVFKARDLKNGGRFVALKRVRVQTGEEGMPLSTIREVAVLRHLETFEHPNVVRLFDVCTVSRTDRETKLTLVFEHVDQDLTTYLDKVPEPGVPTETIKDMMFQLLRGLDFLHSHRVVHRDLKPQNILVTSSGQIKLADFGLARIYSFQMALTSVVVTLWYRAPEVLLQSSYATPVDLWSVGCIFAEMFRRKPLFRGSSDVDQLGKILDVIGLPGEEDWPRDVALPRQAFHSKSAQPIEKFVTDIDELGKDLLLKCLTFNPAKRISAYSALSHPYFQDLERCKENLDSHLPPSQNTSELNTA
T6 sequence (P30281 whole entry partner): as the sequence (P30281 whole entry partner) above
T4 sequence (P50613 whole entry): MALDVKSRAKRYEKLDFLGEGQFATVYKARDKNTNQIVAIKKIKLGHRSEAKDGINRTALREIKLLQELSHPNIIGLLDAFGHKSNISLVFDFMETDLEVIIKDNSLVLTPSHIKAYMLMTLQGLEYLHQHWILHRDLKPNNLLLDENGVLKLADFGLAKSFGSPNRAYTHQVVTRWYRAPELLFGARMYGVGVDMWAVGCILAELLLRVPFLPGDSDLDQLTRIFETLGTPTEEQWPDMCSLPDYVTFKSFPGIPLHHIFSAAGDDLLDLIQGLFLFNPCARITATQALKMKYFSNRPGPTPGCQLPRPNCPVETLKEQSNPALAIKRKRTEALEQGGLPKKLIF
T4 sequence (P51946 whole entry partner): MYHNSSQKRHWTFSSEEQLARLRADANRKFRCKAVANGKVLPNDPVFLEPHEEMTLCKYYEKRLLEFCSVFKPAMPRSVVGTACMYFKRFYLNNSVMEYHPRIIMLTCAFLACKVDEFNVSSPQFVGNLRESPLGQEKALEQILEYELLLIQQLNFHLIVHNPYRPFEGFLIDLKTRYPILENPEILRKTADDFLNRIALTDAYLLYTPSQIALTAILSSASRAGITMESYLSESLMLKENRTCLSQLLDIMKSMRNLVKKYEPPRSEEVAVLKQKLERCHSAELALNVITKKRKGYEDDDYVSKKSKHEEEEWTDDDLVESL
T4 sequence (P51948 whole entry partner): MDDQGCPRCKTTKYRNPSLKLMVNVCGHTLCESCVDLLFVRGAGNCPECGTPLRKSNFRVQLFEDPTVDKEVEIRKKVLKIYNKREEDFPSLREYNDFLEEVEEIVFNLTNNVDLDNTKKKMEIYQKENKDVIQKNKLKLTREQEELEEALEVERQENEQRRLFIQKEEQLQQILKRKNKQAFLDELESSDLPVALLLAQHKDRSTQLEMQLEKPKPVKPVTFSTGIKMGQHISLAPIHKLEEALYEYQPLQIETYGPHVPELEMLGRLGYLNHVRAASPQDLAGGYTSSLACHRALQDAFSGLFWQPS
T5 sequence (P50750 whole entry): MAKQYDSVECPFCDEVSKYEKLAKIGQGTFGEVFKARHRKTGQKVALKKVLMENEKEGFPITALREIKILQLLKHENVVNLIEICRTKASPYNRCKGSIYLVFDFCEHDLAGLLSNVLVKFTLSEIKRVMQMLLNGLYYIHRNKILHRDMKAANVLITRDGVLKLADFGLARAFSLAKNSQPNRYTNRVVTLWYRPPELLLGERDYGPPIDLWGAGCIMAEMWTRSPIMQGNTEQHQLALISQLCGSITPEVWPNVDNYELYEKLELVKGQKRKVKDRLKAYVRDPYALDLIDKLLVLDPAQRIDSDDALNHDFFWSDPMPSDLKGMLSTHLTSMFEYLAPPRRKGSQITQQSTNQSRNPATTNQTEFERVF
T5 sequence (O60563 whole entry partner): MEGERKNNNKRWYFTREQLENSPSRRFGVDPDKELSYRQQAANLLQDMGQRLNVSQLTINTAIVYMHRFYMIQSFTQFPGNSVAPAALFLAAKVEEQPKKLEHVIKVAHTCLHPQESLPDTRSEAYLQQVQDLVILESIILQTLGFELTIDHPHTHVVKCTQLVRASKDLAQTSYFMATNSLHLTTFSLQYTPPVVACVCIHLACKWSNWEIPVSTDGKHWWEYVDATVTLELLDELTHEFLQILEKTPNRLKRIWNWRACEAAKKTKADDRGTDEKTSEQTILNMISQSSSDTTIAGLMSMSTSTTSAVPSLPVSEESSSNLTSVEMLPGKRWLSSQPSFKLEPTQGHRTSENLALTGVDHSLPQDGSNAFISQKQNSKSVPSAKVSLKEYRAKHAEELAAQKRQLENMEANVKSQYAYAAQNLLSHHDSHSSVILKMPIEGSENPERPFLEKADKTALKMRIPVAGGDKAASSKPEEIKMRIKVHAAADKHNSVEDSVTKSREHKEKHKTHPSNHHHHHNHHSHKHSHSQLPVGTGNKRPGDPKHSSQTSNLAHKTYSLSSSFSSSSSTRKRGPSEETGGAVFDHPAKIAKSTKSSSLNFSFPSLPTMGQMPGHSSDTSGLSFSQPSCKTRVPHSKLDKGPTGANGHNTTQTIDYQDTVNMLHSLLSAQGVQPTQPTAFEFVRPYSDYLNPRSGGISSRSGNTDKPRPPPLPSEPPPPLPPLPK

Structure (SMILES)	IC50 [1] [nM]	IC50 [2] [nM]	IC50 [3] [nM]	IC50 [4] [nM]	IC50 [5] [nM]	IC50 [6, 7] [nM]	IC50 [6] [nM]
CN(C)C1CCN(c2ccc(S(=O)(=O)N3CCC(Nc4ncc(C(F)(F)F)c(O[C@H]5CCOC5)n4)CC3)cc2)CC1 [Compound 132]	2.5 to 10	< 0.5	0.5 to 2.5	10 to 50	100 to 1000	0.5 to 2.5	–
Cn1cc(S(=O)(=O)N2CCC(Nc3ncc(C#N)c(N[C@@H]4CCC[C@H]4O)n3)CC2)cn1 [Compound 45]	10 to 50	2.5 to 10	10 to 50	–	–	100 to 1000	–
Cn1cc(S(=O)(=O)N2CCC(Nc3ncc(C(F)(F)F)c(NC4CCCC4)n3)CC2)cn1 [Compound 32]	10 to 50	0.5 to 2.5	10 to 50	–	–	10 to 50	–
O=S(=O)(c1ccc(N2CC[C@@H](O)C2)cc1)N1CCC(Nc2ncc(C(F)(F)F)c(O[C@H]3CCOC3)n2)CC1 [Compound 140]	–	0.5 to 2.5	0.5 to 2.5	–	–	0.5 to 2.5	–
CC(C)Nc1nc(NC2CCN(S(C)(=O)=O)CC2)ncc1C#N [Compound 28]	100 to 1000	10 to 50	50 to 100	–	–	50 to 100	–
O=S(=O)(c1ccc(C2CCNCC2)cc1)N1CCC(Nc2ncc(C(F)(F)F)c(O[C@H]3CCOC3)n2)CC1 [Compound 130]	–	< 0.5	0.5 to 2.5	–	–	0.5 to 2.5	–
O=S(=O)(c1ccc(N2CC3CCC(C2)N3)cc1)N1CCC(Nc2ncc(C(F)(F)F)c(O[C@H]3CCOC3)n2)CC1 [Compound 181]	–	< 0.5	0.5 to 2.5	–	–	–	0.5 to 2.5
O=S(=O)(c1ccc(C2CCNCC2)nc1)N1CCC(Nc2ncc(C(F)(F)F)c(O[C@H]3CCOC3)n2)CC1 [Compound 174]	–	< 0.5	0.5 to 2.5	–	–	0.5 to 2.5	–
Cc1cc(S(=O)(=O)N2CCC(Nc3ncc(C(F)(F)F)c(O[C@H]4CCOC4)n3)CC2)cnc1N1CCNCC1 [Compound 175]	–	< 0.5	0.5 to 2.5	–	–	0.5 to 2.5	–
CS(=O)(=O)N1CCC(Nc2ncc(C#N)c(NC3CCCC3)n2)CC1 [Example 1]	100 to 1000	10 to 50	10 to 50	–	–	10 to 50	–
Cn1cc(S(=O)(=O)N2CCC(Nc3ncc(C#N)c(OC4CCCC4)n3)CC2)cn1 [Example 6, 4-(Cyclopentyloxy)-2-((1-((1-methyl-1H-pyrazol-4-yl)sulfonyl)piperidin-4-yl)amino)pyrimidine-5-carbonitrile]	–	< 0.5	2.5 to 10	–	–	0.5 to 2.5	–
CN1CCC(c2ccc(S(=O)(=O)N3CCC(Nc4ncc(C#N)c(NC5CCCC5)n4)CC3)cc2)CC1 [Example 17, 4-(Cyclopentylamino)-2-((1-((4-(1-methylpiperidin-4-yl)phenyl)sulfonyl)piperidin-4-yl)amino)pyrimidine-5-carbonitrile]	–	0.5 to 2.5	0.5 to 2.5	–	–	0.5 to 2.5	–
C[C@H]1CNCCN1c1ccc(S(=O)(=O)N2CCC(Nc3ncc(C(F)(F)F)c(O[C@H]4CCOC4)n3)CC2)cc1 [Compound 198]	–	0.5 to 2.5	0.5 to 2.5	–	–	0.5 to 2.5	–
O=S(=O)(c1ccc(Br)cc1)N1CCC(Nc2ncc(C(F)(F)F)c(C=C3CCCC3)n2)CC1 [Compound 200]	–	10 to 50	100 to 1000	50 to 100	–	–	–
C[C@@H]1CN(c2ccc(S(=O)(=O)N3CCC(Nc4ncc(C(F)(F)F)c(O[C@@H]5CCOC5)n4)CC3)cc2)C[C@H](C)N1 [Compound 210]	–	0.5 to 2.5	10 to 50	–	–	2.5 to 10	–
Cn1cc(-c2ccc(S(=O)(=O)N3CCC(Nc4ncc(C#N)c(N[C@H]5CC[C@@H](O)C5)n4)CC3)cc2)cn1 (single isomer, unassigned) [Compound 86]	–	< 0.5	0.5 to 2.5	–	–	0.5 to 2.5	–
CN(C)CCn1cc(S(=O)(=O)N2CCC(Nc3ncc(C(F)(F)F)c(O[C@H]4CCOC4)n3)CC2)cn1 [Compound 157]	–	< 0.5	2.5 to 10	–	–	10 to 50	–
N#Cc1cnc(NC2CCN(S(=O)(=O)c3ccc(C4=CCNCC4)cc3)CC2)nc1N[C@H]1CCOC1 [Compound 92]	–	2.5 to 10	2.5 to 10	–	–	0.5 to 2.5	–
Cn1cnc(S(=O)(=O)N2CCC(Nc3ncc(C(F)(F)F)c(NC4CCCC4)n3)CC2)c1 [Compound 35]	10 to 50	0.5 to 2.5	10 to 50	–	–	50 to 100	–
N#Cc1cnc(NC2CCN(S(=O)(=O)c3ccc(C4=CCNCC4)cc3)CC2)nc1O[C@H]1CCOC1 [Compound 104]	–	0.5 to 2.5	2.5 to 10	–	–	0.5 to 2.5	–

Structure (SMILES)	IC50 [1] [nM]	IC50 [2] [nM]	IC50 [3] [nM]	IC50 [4] [nM]	IC50 [5] [nM]	IC50 [6, 7] [nM]	IC50 [6] [nM]
Cn1cc(-c2ccc(S(=O)(=O)N3CCC(Nc4ncc(C#N)c(N[C@H]5CC[C@@H](O)C5)n4)CC3)cc2)cn1 (relative stereo) [Compound 62]	–	0.5 to 2.5	0.5 to 2.5	–	–	0.5 to 2.5	–
O=S(=O)(c1ccc(N2CC3CC(C2)N3)cc1)N1CCC(Nc2ncc(C(F)(F)F)c(O[C@H]3CCOC3)n2)CC1 [Compound 179]	–	< 0.5	0.5 to 2.5	–	–	0.5 to 2.5	–
Cc1cc(S(=O)(=O)N2CCC(Nc3ncc(C(F)(F)F)c(O[C@H]4CCOC4)n3)CC2)ccc1C1CCNCC1 [Compound 155]	–	< 0.5	0.5 to 2.5	–	–	0.5 to 2.5	–
O=S(=O)(c1ccc(C2=CCNCC2)cc1)N1CCC(Nc2ncc(C(F)(F)F)c(N[C@H]3CCOC3)n2)CC1 [Compound 93]	–	0.5 to 2.5	2.5 to 10	–	–	0.5 to 2.5	–
O=S(=O)(c1ccc(N2CC3CC(C2)N3)nc1)N1CCC(Nc2ncc(C(F)(F)F)c(O[C@H]3CCOC3)n2)CC1 [Compound 180]	–	< 0.5	0.5 to 2.5	–	–	0.5 to 2.5	–
N#Cc1cnc(NC2CCN(S(=O)(=O)c3ccc(N4CCNCC4)cc3)CC2)nc1NC1CCCC1 [Compound 90]	–	0.5 to 2.5	0.5 to 2.5	–	–	0.5 to 2.5	–
CS(=O)(=O)N1CCC(Nc2cc(NC3CCCC3)c(C#N)cn2)CC1 [Example 2]	100 to 1000	10 to 50	10 to 50	–	–	10 to 50	–
C[C@@H]1CN(c2ccc(S(=O)(=O)N3CCC(Nc4ncc(C(F)(F)F)c(O[C@H]5CCOC5)n4)CC3)cn2)C[C@@H](C)N1 [Compound 207]	–	0.5 to 2.5	2.5 to 10	–	–	0.5 to 2.5	–
O=S(=O)(c1ccc(N2C3CCC2CNC3)nc1)N1CCC(Nc2ncc(C(F)(F)F)c(O[C@H]3CCOC3)n2)CC1 [Compound 183]	–	< 0.5	0.5 to 2.5	–	–	0.5 to 2.5	–
O=S(=O)(c1ccc(C2=CCNCC2)cn1)N1CCC(Nc2ncc(C(F)(F)F)c(O[C@H]3CCOC3)n2)CC1 [Compound 176]	–	< 0.5	0.5 to 2.5	–	–	0.5 to 2.5	–
Cc1nnc(-c2ccc(S(=O)(=O)N3CCC(Nc4ncc(C(F)(F)F)c(O[C@H]5CCOC5)n4)CC3)cc2)o1 [Compound 161]	–	< 0.5	0.5 to 2.5	–	–	0.5 to 2.5	–
Cn1cc(S(=O)(=O)N2CCC(Nc3ncc(C#N)c(N[C@H]4CC[C@@H](O)C4)n3)CC2)cn1 (racemic) [Example 11]	10 to 50	0.5 to 2.5	10 to 50	–	–	10 to 50	–
CN1CC=C(c2ccc(S(=O)(=O)N3CCC(Nc4ncc(C(F)(F)F)c(O[C@H]5CCOC5)n4)CC3)cc2)CC1 [Compound 203]	–	< 0.5	< 0.5	–	–	0.5 to 2.5	–
Cn1cc(S(=O)(=O)N2CCC(Nc3ncc(C#N)c(NC4(C)CCCC4)n3)CC2)cn1 [Compound 118]	–	0.5 to 2.5	0.5 to 2.5	–	–	0.5 to 2.5	–
O=S(=O)(c1ccc(C2CCNCC2)cc1)N1CCC(Nc2ncc(C(F)(F)F)c(NC3CCCC3(F)F)n2)CC1 (centres unmarked) [Compound 137]	–	0.5 to 2.5	0.5 to 2.5	–	–	0.5 to 2.5	–
N#Cc1cnc(NC2CCN(S(=O)(=O)c3ccc(N4CCNC(=O)C4)cc3)CC2)nc1NC1CCCC1 [Compound 103]	–	0.5 to 2.5	2.5 to 10	–	–	0.5 to 2.5	–
Cn1cc(-c2ccc(S(=O)(=O)N3CCC(Nc4ncc(C#N)c(NC5CCCC5)n4)CC3)cc2)cn1 [Compound 49]	10 to 50	0.5 to 2.5	2.5 to 10	–	–	0.5 to 2.5	–
Cc1cc(S(=O)(=O)N2CCC(Nc3ncc(C(F)(F)F)c(O[C@H]4CCOC4)n3)CC2)ccc1C1CCCNC1 (some centres unmarked) [Compound 192]	–	< 0.5	0.5 to 2.5	–	–	0.5 to 2.5	–
O=S(=O)(c1ccc(C2=CCNCC2)cc1)N1CCC(Nc2ncc(C(F)(F)F)c(NC3CCCC3(F)F)n2)CC1 (centres unmarked) [Compound 136]	–	0.5 to 2.5	2.5 to 10	–	–	0.5 to 2.5	–
